Test results taken from the NIST ThermoML archive (doi:10.1021/je7003758).

Test: xn = mol fraction of the nth substance listed
Settings: 298.15 K, Liquid

CCCCCCCCCl [1-chlorooctane] + CN1CCCC1=O
mass density [kg/m3]
Settings | x2 = 0.0969 | x2 = 0.2014 | x2 = 0.3097 | x2 = 0.4076 | x2 = 0.5021 | x2 = 0.6022 | x2 = 0.7005 | x2 = 0.8007 | x2 = 0.9008
10000 kPa | – | – | – | 920.4 | 933.5 | 948.8 | 965.9 | – | 1007.8
10400 kPa | – | – | – | – | – | – | – | – | 1008
10500 kPa | 885.6 | 896.2 | 908.5 | 920.7 | 933.8 | 949.1 | 966.1 | 985.7 | –
10900 kPa | – | – | – | – | – | – | – | 986 | –
11000 kPa | 886 | 896.5 | 908.8 | 921.1 | 934.2 | 949.5 | 966.5 | – | 1008.3
11400 kPa | – | – | – | – | – | – | 966.7 | – | –
11500 kPa | 886.3 | 896.9 | 909.1 | 921.3 | 934.5 | 949.7 | – | 986.3 | 1008.6
11900 kPa | 886.6 | – | – | – | – | – | – | – | –
12000 kPa | – | 897.3 | 909.5 | 921.6 | 934.8 | 950.1 | 967 | 986.5 | 1008.8
12500 kPa | 887 | 897.6 | 909.8 | 922 | 935.1 | 950.4 | 967.3 | 986.8 | 1009.2
12900 kPa | – | – | – | – | – | 950.6 | – | – | –
13000 kPa | 887.4 | 897.9 | 910.1 | 922.3 | 935.4 | – | 967.6 | 987.1 | 1009.4
13500 kPa | 887.7 | 898.3 | 910.4 | 922.6 | 935.7 | 950.9 | 967.9 | 987.4 | 1009.7
13900 kPa | – | 898.5 | – | – | – | – | – | – | –
14000 kPa | 888.1 | – | 910.8 | 922.9 | 936 | 951.2 | 968.2 | 987.7 | 1009.9
14400 kPa | – | 898.9 | – | – | – | – | – | – | –
14500 kPa | 888.4 | – | 911.1 | 923.3 | 936.3 | 951.5 | 968.4 | – | 1010.1
14600 kPa | – | – | – | – | – | – | – | 988 | –
14900 kPa | – | – | – | – | – | – | – | – | 1010.4
15000 kPa | 888.7 | 899.2 | 911.4 | 923.5 | 936.6 | 951.8 | 968.8 | 988.2 | –
15400 kPa | – | 899.5 | – | – | – | – | – | – | –
15500 kPa | 889 | – | 911.7 | 923.9 | 936.9 | 952.1 | 969 | 988.4 | 1010.7
15900 kPa | – | – | – | – | 937.2 | – | 969.3 | – | –
16000 kPa | 889.4 | 899.9 | 912.1 | 924.2 | – | 952.4 | – | 988.7 | 1011
16500 kPa | 889.7 | 900.3 | 912.4 | 924.5 | 937.5 | 952.7 | 969.6 | 988.9 | 1011.2
17000 kPa | – | 900.6 | 912.8 | 924.9 | 937.8 | 953 | 970 | 989.2 | 1011.5
17100 kPa | 890.1 | – | – | – | – | – | – | – | –
17500 kPa | 890.4 | 900.9 | 913.1 | 925.2 | 938.1 | 953.2 | 970.2 | 989.5 | 1011.7
18000 kPa | 890.7 | 901.2 | 913.4 | 925.5 | 938.4 | 953.5 | 970.4 | 989.7 | 1012
18500 kPa | 891.1 | 901.5 | 913.7 | 925.7 | 938.7 | 953.8 | 970.8 | 990 | 1012.2
19000 kPa | 891.4 | 901.9 | 914.1 | 926.1 | 939.1 | 954.2 | 971 | 990.5 | 1012.5
19400 kPa | – | 902.2 | – | 926.4 | – | – | 971.4 | – | –
19500 kPa | 891.7 | – | 914.4 | – | 939.3 | 954.5 | – | 990.7 | 1012.8
20000 kPa | 892.1 | 902.6 | 914.7 | – | 939.8 | 954.8 | 971.7 | – | 1013.2
20100 kPa | – | – | – | 926.8 | – | – | – | 991 | –
